Test results from article PMC2709226 (Plant Molecular Biology, 2008).

Legend:
acINV [1] = molecular target: acINV (Allium cepa, UniProt O81083); assay: biochemical
acINV [2] = molecular target: acINV (Allium cepa, UniProt O81083, W440Y); assay: biochemical

Km (acINV [1]): 5.8 ± 1.9 mM
Km (acINV [2]): 8.8 ± 2.4 mM
SMILES: OC[C@H]1O[C@@](CO)(O[C@H]2O[C@H](CO)[C@@H](O)[C@H](O)[C@H]2O)[C@@H](O)[C@@H]1O [sucrose]
